Data reported in US8273769B2, “Phenoxy acetic acid derivatives” (Merck Serono SA, priority 2009, dated 2012).

Assays:
CRTH2 [1] = biological target: T1, CRTH2 (Homo sapiens, UniProt Q9Y5Y4); assay: Radioligand binding Scintillation Proximity Assay ([3H]PGD2, hCRTH2-CHO cell membranes); design: host or cells: CHO cells; settings: 1.5 nM [3H]PGD2, hCRTH2-CHO cell membranes, SPA
T1 sequence (Q9Y5Y4 1-395): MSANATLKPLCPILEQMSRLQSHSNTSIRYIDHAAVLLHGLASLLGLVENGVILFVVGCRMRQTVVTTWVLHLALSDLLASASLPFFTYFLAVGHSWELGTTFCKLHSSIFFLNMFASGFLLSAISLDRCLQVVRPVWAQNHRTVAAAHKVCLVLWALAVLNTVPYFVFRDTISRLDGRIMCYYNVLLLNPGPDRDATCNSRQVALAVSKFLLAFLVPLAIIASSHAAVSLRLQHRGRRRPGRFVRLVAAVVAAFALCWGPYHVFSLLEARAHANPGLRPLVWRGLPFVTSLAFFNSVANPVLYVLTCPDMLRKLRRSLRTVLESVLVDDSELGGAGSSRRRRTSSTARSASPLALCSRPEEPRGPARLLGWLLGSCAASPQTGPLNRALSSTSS
Outline: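 SPA competition binding at room temperature, 90 min with agitation: 1.5 nM [3H]PGD2, 10-50 μg/ml hCRTH2-CHO membrane protein, WGA SPA beads, HEPES pH 7.4 with 10 mM MnCl2, 1% DMSO. Non-specific binding defined with 10 μM PGD2; scintillation counting.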

CRTH2 [2] = biological target: T1, CRTH2; assay: [35S]GTPγS binding assay (CHO-CRTH2 cell membranes); assay type: biochemical; design: expressed in transfected cells; host or cells: CHO-CRTH2 cells; settings: for IC50: antagonist mode, fixed concentration of PGD2 (EC80)
Description: Adherent CHO cells expressing hCRTH2 (Euroscreen, Belgium) were cultured in 225 cm^2 cell culture flasks (Corning, USA) in 30 ml of medium. After two rinses of phosphate buffered saline (PBS), cells were harvested in 10 ml of PBS containing 1 mM EDTA, centrifuged at 500×g for 5 min at 4° C. and frozen at −80° C. The pellet was re-suspended in 50 mM Tris-HCl, pH 7.4, 2 mM EDTA, 250 mM Sucrose, containing protease inhibitor cocktail tablets, (Complete EDTA-free, Roche, Germany) and incubated 30 min at 4° C. Cells were disrupted by nitrogen cavitation (Parr Instruments, USA) at 4° C. (800 p.s.i. for 30 min), and centrifuged at 500×g for 10 min at 4° C. Pellet containing nuclei and cellular debris was discarded and supernatant was centrifuged 60 min at 4° C. at 45000×g. Membrane pellet was re-suspended in storage buffer (10 mM HEPES/KOH pH 7.4, 1 mM EDTA, 250 mM sucrose, protease inhibitor cocktail tablets) using Dounce homogenization and frozen in liquid nitrogen, and stored at −80° C.
The [^35S]GTPγS assay measures the increase in guanine nucleotide exchange at G-proteins in cell membranes, resulting from agonist (PGD2) binding to CRTH2. This process can be monitored in vitro by incubating cell membranes containing G-proteins and CRTH2 with GDP and [^35S]GTPγS, a radiolabeled, hydrolysis-resistant analogue of GTP (see, Harrison et al., Life Sciences 74, 489-508, 2003). The addition of a Compounds of Formula (I) results in binding to CRTH2 and thus in an inhibition of agonist binding, which can be monitored as inhibition of the stimulation of GTP/GDP exchange.
Briefly, Compounds of Formula (I) are incubated in 96-well scintillating white polystyrene plates (Perkin Elmer, USA) in a final volume of 200 μl containing 20 mM HEPES/KOH pH 7.4, 3 mM MgCl2, 10 μg/ml Saponin, 5 μM GDP, 75 mM NaCl and 2% of dimethylsulphoxide (DMSO). Reaction is triggered by the addition of 5-10 μg of CHO-CRTH2 cell membranes and 0.15 nM [^35S]GTPγS. After 60 min incubation at 30° C., reaction is stopped by centrifugation at 700×g, at 4° C. for 10 minutes and supernatant is removed. The radioactivity coming from the [^35S]GTPγS bound on centrifuged cell membranes is recorded using a 1450 Micro-beta scintillation counter. For IC50 determination, increasing concentrations of compounds are incubated in presence of a fixed concentration of PGD2 (EC80). For EC50 measurements, compounds are incubated without addition of PGD2. Basal [^35S]GTPγS activity is determined without addition of any ligands or compounds. 100% [^35S]GTPγS activity is measured by the addition of 1 μM of PGD2.

CRTH2 [3] = biological target: T1, CRTH2; assay: Cellular Dielectric Spectroscopy (CHO-CRTH2 cells); assay type: cell-based; design: expressed in transfected cells; host or cells: CHO-CRTH2 cells; settings: for IC50: antagonist mode, fixed concentration of PGD2 (EC80); for EC50 / Emax: partial agonists, agonist activity without PGD2
Description: Cellular Dielectric Spectroscopy (CDS) is a label-free technology based on the measurement of complex impedance changes (delta Z or dZ). Impedance (Z) is related to the ratio of voltage to current as described by Ohm's law (Z=V/I). In order to measure the changes in impedance that occur in response to receptor stimulation, mammalian cells are seeded onto a custom 96-well microliter plate that contains electrodes at the bottom of each well. Key contributors to the impedance measurements are changes in cell-substrate adherence, changes in cell shape and volume, and changes in cell-cell interactions. These factors individually or collectively affect the flow of current, influencing the magnitude and characteristics of the signal measured. G-protein coupled receptors ligand-induced activity can be measured using this technology and specific G protein coupling can be identified. Activities of reference agonist and antagonist molecules of CRTH2 have been measured using this assay and similar results were obtained compared to different functional assays.
CHO-CRTH2 cells are cultured in HAM's F12 (Lonza, Switzerland) supplemented with 10% foetal calf serum (PAA, Australia) and 400 μg/ml Geneticin. 100000 cells/well are seeded in standard 96W Microplates (MDS Analytical Technologies) and incubated at 37° C. in 5% CO2 for 24 hours. Cells are washed twice with 135 μl of cell key buffer (Hank's Balanced Salt Solution 1× (HBSS) (Invitrogen) supplemented with 10 mM HEPES pH 7.4 in presence of 1% DMSO). For EC50 determination. 15 μl of increasing concentration of Compounds of Formula (I) diluted in cell key buffer are added to the cells and agonist activity is then recorded for 25 minutes. […] Results are expressed as the amplitude between the highest and the lowest signal produced (max-min). Basal and maximum activities are measured, respectively in absence or presence of PGD2 (EC80).

[4] = inverse agonists, 100% of Emax = activity with 1 μM PGD2

Row | SMILES | IC50 (CRTH2 [1]) [nM] | IC50 (CRTH2 [2]) [nM] | IC50 (CRTH2 [3]) [nM] | further results
1 | CCCc1ccncc1C#Cc1cc(Cl)ccc1OCC(=O)O [Example 42, {4-chloro-2-[(4-propylpyridin-3-yl)ethynyl]phenoxy}acetic acid] | 5 | 10 | 25 | 
2 | CCCS(=O)(=O)c1cccc(C#Cc2cc(C#N)ccc2OCC(=O)O)c1 [Example 32, (4-cyano-2-{[3-(propylsulfonyl)phenyl]ethynyl}phenoxy)acetic acid] | 25 | 185 |  | 
3 | Cc1ccncc1C#Cc1cc(C#N)ccc1OCC(=O)O [Example 44, {4-cyano-2-[(4-methylpyridin-3-yl)ethynyl]phenoxy}acetic acid] | 60 |  |  | Emax (CRTH2 [2]; partial agonist, without PGD2, 100% = activity with 1 μM PGD2): 13%; EC50 (CRTH2 [2]; partial agonist, without addition of PGD2): 40 nM; EC50 (CRTH2 [3]): 115 nM; Emax (CRTH2 [3]): 59%
4 | CCCS(=O)(=O)c1ccc(F)c(C#Cc2cc(Cl)ccc2OC(C)C(=O)O)c1 (stereo not drawn) [Example 168, 2-(4-chloro-2-{[2-fluoro-5-(propylsulfonyl)phenyl]ethynyl}phenoxy)propanoic acid] | 3 | 9 |  | Emax (CRTH2 [2]; [4]): -13%
5 | CCCS(=O)(=O)c1ccc(C)c(C#Cc2cc(Cl)ccc2OC(C)C(=O)O)c1 (stereo not drawn) [Example 173, 2-(4-chloro-2-{[2-methyl-5-(propylsulfonyl)phenyl]ethynyl}phenoxy)propanoic acid] | 1 | 7 |  | 
6 | CCCS(=O)(=O)c1ccc(C)c(C#Cc2cc(C#N)ccc2OCC(=O)O)c1 [Example 40, (4-cyano-2-{[2-methyl-5-(propylsulfonyl)phenyl]ethynyl}phenoxy)acetic acid] | 9 | 39 |  | 
7 | Cc1ccncc1C#Cc1cc(Cl)ccc1OCC(=O)O [Example 15, {4-chloro-2-[(4-methylpyridin-3-yl)ethynyl]phenoxy}acetic acid] | 30 |  | 74 | EC50 (CRTH2 [3]): 53 nM; Emax (CRTH2 [3]): 46%
8 | CN(C)S(=O)(=O)c1cncc(C#Cc2cc(C#N)ccc2OCC(=O)O)c1 [Example 67, [4-cyano-2-({5-[(dimethylamino)sulfonyl]pyridin-3-yl}ethynyl)phenoxy]acetic acid] | 86 |  | 34 | 
9 | Cc1ccc(S(=O)(=O)CC(C)C)cc1C#Cc1cc(Cl)ccc1OCC(=O)O [Example 53, (4-chloro-2-{[5-(isobutylsulfonyl)-2-methylphenyl]ethynyl}phenoxy)acetic acid] | 5 |  | 50 | 
10 | CC(C)c1ccc(S(C)(=O)=O)cc1C#Cc1cc(C#N)ccc1OCC(=O)O [Example 71, (4-cyano-2-{[2-isopropyl-5-(methylsulfonyl)phenyl]ethynyl}phenoxy)acetic acid] | 16 |  | 15 | 

Now from value to compound, other results behind:

Row | IC50 (CRTH2 [1]) [nM] | IC50 (CRTH2 [2]) [nM] | IC50 (CRTH2 [3]) [nM] | SMILES | further results
11 | 26 | 105 |  | O=C(O)COc1ccc(Cl)cc1C#Cc1cccc(Cl)c1 [Example 3, {4-chloro-2-[(3-chlorophenyl)ethynyl]phenoxy}acetic acid] | 
12 | 12 | 288 |  | O=C(O)COc1ccc(Cl)cc1C#Cc1cccc(S(=O)(=O)CCO)c1 [Example 20, [4-chloro-2-({3-[(2-hydroxyethyl)sulfonyl]phenyl}ethynyl)phenoxy]acetic acid] | 
13 | 28 |  |  | CC(=O)Nc1ccc(C#Cc2cc(Cl)ccc2OCC(=O)O)cc1 [Example 152, (2-{[4-(acetylamino)phenyl]ethynyl}-4-chlorophenoxy)acetic acid] | Emax (CRTH2 [2]; [4]): -13%
14 | 9 | 10 | 84 | Cc1ccc(S(=O)(=O)c2ccccc2)cc1C#Cc1cc(Cl)ccc1OCC(=O)O [Example 95, (4-chloro-2-{[2-methyl-5-(phenylsulfonyl)phenyl]ethynyl}phenoxy)acetic acid] | Emax (CRTH2 [2]; [4]): -17%
15 | 15 | 37 |  | O=C(O)COc1ccc(Cl)cc1C#Cc1ccccc1Cl [Example 4, {4-chloro-2-[(2-chlorophenyl)ethynyl]phenoxy}acetic acid] | 
16 | 6 | 37 |  | CS(=O)(=O)c1cc(C#Cc2cc(Cl)ccc2OCC(=O)O)ccc1-c1ccccc1 [Example 140, (4-chloro-2-{[2-(methylsulfonyl)biphenyl-4-yl]ethynyl}phenoxy)acetic acid] | Emax (CRTH2 [2]; [4]): -11%
